Test results as given in patent US20090124631A1, “Combination Therapy” (priority 2007, published 2009).

Experiments:
[1] = test system: TSP-1 (THBS1) transcription in human cancer HCT15 cells; test: Microarray analysis of TSP-1 (THBS1) transcription in HCT15 cells; assay type: cell-based; settings: HCT15 cells in vitro, 24 hours
Description: Total RNAs were extracted and RNA quality analysis was done using Agilent 2100 bioanalyzer and Agilent's RNA Labchip kits. RNAs were labeled with either Cy3 or Cy5 using Agilent's optimized labeling kits and hybridized to Human whole genome 44K Oligo Microarray (Agilent, Palo Alto, Calif.). Slides were scanned using DNA microarry scanner from Agilent and the raw data was extracted using Agilent's image analysis tool (feature extraction software). Normalization and statistical analysis were performed using GeneSpring software. Biological analysis was performed using Biointerpreter software.

[2] = test system: human H460 non-small cell lung tumor xenograft; test: H460 xenograft, combination with taxotere; assay type: in vivo, mouse; settings: H460, oral Compound A 3 times weekly with taxotere i.v. single dose
Description: Antitumor studies were done using human H460 non-small cell lung tumor xenograft model in male BALBc/A nude mice (from Japan Crea Inc., Japan). Male nude mice were used at age 8-10 weeks. Human carcinoma cells were injected subcutaneously in the animal flank and allowed to form solid tumors. Tumor fragments (about 2 mm^2 fragments) were then removed and implanted subcutaneously to the right flank of other animals. […] Tumor volumes and gross body weight of animals were monitored twice weekly for up to 3 weeks. Each experimental group contained 6 animals.

[3] = test system: MT3 transcription in human colon cancer HCT15 cells; test: MT3 transcription in HCT15 cells, real time RT-PCR; assay type: cell-based; settings: 1 uM
Description: Total RNAs were extracted from cell pellets or from tumors using QiaShredder and RNeasy mini kit (Qiagen). 1 μg RNA was converted into cDNA using Expand RT enzyme (Roche) and Oligo(dT) primers (Invitrogen) in a 20 μl reaction volume. For quantitative real-time PCR, the primers used for MT3 were [NT] and [NT] and those for β-actin were [NT] and [NT]. Reactions with either pair of primers included an annealing temperature of 63.4° C. All real-time PCR reactions were performed on the MasterCycler ep Realplex (Eppendorf) using FastStart SYBRGreen Master (Roche).

[4] = test system: human H460 non-small cell lung tumor, Du145 prostate tumor, TSU-Pr1 prostate tumor, and AZ521 gastric tumor xenograft; test: Xenograft combination studies with taxol (Example 15); assay type: in vivo, mouse; settings: oral administration, nude mice with human lung, prostate and gastric tumors
Description: (§1) Antitumor studies were done using human H460 non-small cell lung tumor, Du145 prostate tumor, TSU-Pr1 prostate tumor, and AZ521 gastric tumor xenograft model in male BALBc/A nude mice (from Japan Crea Inc., Japan). Male nude mice were used at age 8-10 weeks. Human carcinoma cells were injected subcutaneously in the animal flank and allowed to form solid tumors. Tumor fragments (about 2 mm^3 fragments) were then removed and implanted subcutaneously through a small surgical incision to the right flank of other animals. […] Tumor volumes and gross body weight of animals were monitored twice weekly for up to 2 weeks for AZ-521 and TSU-Pr1, or 4 weeks for H460 and Du145 xenografts. Each experimental group contained 6 animals.

[5] = test system: TSP-1 transcription in mouse stromal cells in implanted H460 tumors; test: TSP-1 transcription in mouse stromal cells of implanted H460 tumors; assay type: in vivo; settings: Compound A 100 mg/kg, Compound B 40 mg/kg, 5 repeated oral doses
Description: […] Each group contains three mice. […] The expression level of TSP-1 mRNA was detected by ABI7700 analyzer using probe/primer pre-mixture reagent (ABI, Cat# Mm01335418 ml) and TaqMan® Universal PCR Master Mix (ABI, Cat# 430-4437) as described in the ABI's protocol.

[6] = test system: H460 (NSCLC) xenografts; test: H460 (NSCLC) xenograft, oral HDAC inhibitor with taxol; assay type: in vivo, mouse
Description: as §1

[7] = molecular target: T1, HDAC3 (Homo sapiens, UniProt O15379); test: Fluorescence-based HDAC enzyme assay, recombinant HDAC3; assay type: biochemical; settings: recombinant human HDAC enzyme in vitro; read-out: IC50 (μM) HD3
T1 construct: cDNAs corresponding to the full length human HDAC1, 2, 3 and 11 were cloned into pBlueBac4.5 vector; FLAG (C); made in house; host or cells: Sf-9 insect cells (baculovirus)
Description: cDNAs of human HDAC1-8 and 11 were generated by RT-PCR reactions using primers complementary to the 5′ and 3′ coding sequence of human HDAC gene sequences in GenBank. cDNAs corresponding to the full length human HDAC1, 2, 3 and 11 were cloned into pBlueBac4.5 vector (Invitrogen). The constructs were used to generate recombinant baculoviruses using the Bac-N-Blue™ DNA according to the manufacturer's instructions (Invitrogen). The recombinant HDAC1, 2, 3, 11 proteins produced harbor a FLAG tag at their C-termini. cDNAs encoding truncated versions of HDAC4, 5 and 7 encompassing their deacetylase domains were cloned into pDEST10 as an N-terminal hexahistidine fusion protein and recombinant baculoviruses were generated using the Bac-to-Bac™ Baculovirus expression system (Invitrogen). HDAC6 and 8 were cloned as full length N-terminally His-tagged protein. All HDAC proteins were expressed in insect Sf-9 cells (Spodoptera frugiperdai) upon infection with recombinant baculovirus. HDAC1 enzyme was purified from the Q-sepharose FF column (Amersham Pharmacia Biotech, Baie d'Urfe QC, Canada) followed by an anti-FLAG immunoaffinity column (Sigma). HDAC2, 3 and 11 were purified using Flag-antibody immunoaffinity purification. HDAC4, 5, 6, 7 and 8 were purified using either Ni-NTA resin (QIAGEN Mississauga ON, Canada) or His-Select resin (Sigma) with step washes and elution with different concentrations of imidazole in Buffer containing 25 mM Tris (or NaPO4) pH 8.0, 10% glycerol and 150 mM or 500 mM NaCl.
Recombinant HDAC enzymes were incubated with diluted compounds in assay buffer (25 mM Hepes, pH 8.0, 137 mM NaCl, 1 mM MgCl2 and 2.7 mM KCl) for 10 minutes at ambient temperatures in black 96-well plate. Boc-Lys(Ac)-AMC (for HDAC1, 2, 3, 6, and 8 enzymes), which was purchased from Bachem Biosciences Inc., (King of Prussia, Philadelphia) were added into enzyme-compound mixture and incubated at 37° C. […] After 30 minutes, fluorescence was measured using a fluorometer (SPECTRAMAX GeminiXS, Molecular Devices, Sunnylvale, Calif.). […]

T1 sequence (O15379 whole entry): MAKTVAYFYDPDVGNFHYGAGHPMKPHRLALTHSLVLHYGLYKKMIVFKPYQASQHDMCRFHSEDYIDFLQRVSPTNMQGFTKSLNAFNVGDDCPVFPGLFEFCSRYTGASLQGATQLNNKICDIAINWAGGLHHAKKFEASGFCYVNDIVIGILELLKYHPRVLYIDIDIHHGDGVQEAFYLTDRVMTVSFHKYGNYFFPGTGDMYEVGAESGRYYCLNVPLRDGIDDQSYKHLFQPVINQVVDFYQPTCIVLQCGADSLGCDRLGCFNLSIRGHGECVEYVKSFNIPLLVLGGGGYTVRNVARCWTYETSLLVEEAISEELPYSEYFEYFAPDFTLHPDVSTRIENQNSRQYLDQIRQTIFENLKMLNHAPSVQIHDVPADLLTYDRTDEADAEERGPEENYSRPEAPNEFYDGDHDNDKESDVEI

SMILES | TSP-1 (THBS1) transcription [1] | antitumor activity of taxotere [2] | MT3 transcription [3] | antitumor activity of taxol [4] | TSP-1 transcription in mouse stromal cells [5] | tumor response to combination therapy with taxol ([6]; Compound A 100 mg/kg or SAHA 120 mg/kg with taxol 60 mg/kg) | anti-tumor effect of taxane (tumor volume) ([6]; Compound A 100 mg/kg p.o. 3 times per week with taxol 60 mg/kg i.v. day 1) | IC50 [7] [µM]
Nc1ccccc1NC(=O)c1ccc(CNc2nccc(-c3cccnc3)n2)cc1 [Compound A] | induction | Potentiation | much more potent than SAHA | Potentiation | induction | tumor regression | potentiation | –
Nc1ccccc1NC(=O)c1ccc(N2CC[C@H](Nc3cccnc3)C2)cc1 [Compound B] | induction | – | – | Potentiation | induction | – | – | 0.3
Nc1ccc(-c2ccccc2)cc1NC(=O)c1ccc(N2CC[C@H](N)C2)cc1 [Compound D] | – | – | – | – | – | – | – | 9
